Experimental findings from ChEMBL document CHEMBL1124148 (J Med Chem, 1988) are described below.

Each structure is given as a SMILES string.

Assay [1] is described as follows: Inhibition of FPGS from mouse liver in the presence of folic acid. It counts as functional.
Assay [2] in a line: Cell-growth inhibition against SCC15/R1 cell line. As to conditions: Homo sapiens, SCC-15. The assay is classed as functional, cell-based.
The nature of assay [3]: Cell-growth inhibition against SCC25 cell line. It counts as functional, cell-based. The note with it: Homo sapiens, SCC-25.
Assay [4] is described as follows: Cell-growth inhibition against SCC15 cell line. The assay is classed as functional, cell-based. The note with it: Homo sapiens, SCC-15.
Assay [5] is described as follows: Cell-growth inhibition against SCC25/R1 cell line. The assay is classed as functional, cell-based. The note with it: Homo sapiens, SCC-25.
Another assay concerns L1210. The assay can be described thus: Inhibitory concentration against growth of L1210 cell line. It counts as functional, cell-based. As to conditions: Mus musculus.
Another assay deals with T1, Dihydrofolate reductase (Mus musculus, UniProt P00375).
T1 sequence (P00375 whole entry): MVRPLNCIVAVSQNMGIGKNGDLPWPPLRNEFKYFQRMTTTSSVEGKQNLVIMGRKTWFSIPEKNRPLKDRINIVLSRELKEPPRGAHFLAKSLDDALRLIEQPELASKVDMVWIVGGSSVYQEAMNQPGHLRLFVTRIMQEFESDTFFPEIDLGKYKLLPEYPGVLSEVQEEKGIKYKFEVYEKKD

The test system of a further assay is L1210 ( R81). The assay can be described thus: Inhibitory concentration against growth of L1210/R81 cell line. It counts as functional, cell-based. The note with it: Mus musculus.
Assay [6] relates to SCC-25. The assay can be described thus: Inhibitory concentration against growth of SCC25/R1 cell line. It counts as functional, cell-based. As to conditions: Homo sapiens.
Assay [7] deals with SCC-15. Kind of assay: Inhibitory concentration against growth of SCC15 cell line. The assay is classed as functional, cell-based. As to conditions: Homo sapiens.
The subject of assay [8] is SCC-25. Kind of assay: Inhibitory concentration against growth of SCC25 cell line. As to conditions: Homo sapiens. The assay is classed as functional, cell-based.
For assay [9], the system named is SCC-15. The assay can be described thus: Inhibitory concentration against growth of SCC15/R1 cell line. It counts as functional, cell-based. The note with it: Homo sapiens.

Description for Dihydrofolate reductase: Inhibition of dihydrofolate reductase (DHFR) from murine leukemia cells

As to `NCCCC(NC(=O)c1ccc(NCc2cnc3nc(N)nc(N)c3n2)cc1)C(=O)O` (stereo not given), the inhibition constant Ki (as a rule, a dissociation constant, usually derived from enzyme kinetics or from competition with a known ligand) in assay [1] worked out at 0.15 µM.

`CN(Cc1cnc2nc(N)nc(N)c2n1)c1ccc(C(=O)NC(CCC(=O)OC(C)(C)C)C(=O)O)cc1` (stereo not given): the IC50 (commonly the concentration that gives 50% inhibition) in assay [2] is 1.3 µM; in assay [3], 0.4 µM; in assay [4], 0.6 µM; in assay [5], 0.78 µM.

Regarding `CC(=O)NCCCC(NC(=O)c1ccc(NCc2cnc3nc(N)nc(N)c3n2)cc1)C(=O)O` (stereo not given), the inhibitory constant (Ki) in assay [1] worked out at 68 µM. The values for the IC50 with L1210, against Dihydrofolate reductase and with L1210 ( R81) were 0.017 µM, 0.028 µM and 81 µM, respectively.

With `CC(=O)NCCCC(NC(=O)c1ccc(N(C=O)Cc2cnc3nc(N)nc(N)c3n2)cc1)C(=O)O` (stereo not given), the half-inhibitory concentration (IC50) was 0.41 µM in the assay on L1210, 0.053 µM at Dihydrofolate reductase and 230 µM in the assay on L1210 ( R81).

For `NCCCC(NC(=O)c1ccc(N(C=O)Cc2cnc3nc(N)nc(N)c3n2)cc1)C(=O)O` (stereo not given), the Ki in assay [1] worked out at 0.65 µM.

For `Nc1nc(N)c2nc(CN(C=O)c3ccc(C(=O)NC(CCCNC(=O)c4ccccc4)C(=O)O)cc3)cnc2n1` (stereo not given), in assay [1], the Ki is over 1000 µM. The IC50 with L1210 came out at 0.02 µM; against Dihydrofolate reductase, 0.034 µM; in the assay on L1210 ( R81), 156 µM.

For the molecule `Nc1nc(N)c2nc(CN(C=O)c3ccc(C(=O)NC(CCCNC(=O)c4ccc(Cl)c(Cl)c4)C(=O)O)cc3)cnc2n1` (stereo not given), the IC50 in the assay on L1210 is 3.2 µM; on Dihydrofolate reductase, 0.056 µM; in the assay on L1210 ( R81), over 200 µM.

In the case of `Nc1nc(N)c2nc(CNc3ccc(C(=O)N[C@@H](CCCNC(=O)c4ccc(Cl)c(Cl)c4)C(=O)O)cc3)cnc2n1`, the IC50 stood at 0.032 µM in the assay with L1210 and 0.045 µM on Dihydrofolate reductase.

Take `Nc1nc(N)c2nc(CNc3ccc(C(=O)NC(CCCNC(=O)c4ccccc4C(=O)O)C(=O)O)cc3)cnc2n1` (stereo not given): the IC50 is 0.00075 µM with L1210; 0.004 µM in assay [2]; 0.00096 µM in [3]; 0.0011 µM in assay [4]; 0.0013 µM in assay [5].

For the molecule `Nc1nc(N)c2nc(CN(C=O)c3ccc(C(=O)NC(CCCNC(=O)CCC(=O)O)C(=O)O)cc3)cnc2n1` (stereo not given), the Ki in [1] was over 100 µM.

As for `Nc1nc(N)c2nc(CNc3ccc(C(=O)NC(CCCNC(=O)c4ccccc4)C(=O)O)cc3)cnc2n1` (stereo not given), the Ki in assay [1] is over 100 µM. Moreover, the IC50 with L1210 came to 0.00089 µM; against Dihydrofolate reductase it was 0.027 µM; in the assay on L1210 ( R81), 17 µM.

As for `CN(Cc1cnc2nc(N)nc(N)c2n1)c1ccc(C(=O)N[C@@H](CCC(=O)O)C(=O)O)cc1` [METHOTREXATE], the IC50 amounted to 0.15 µM in the assay with SCC-25 [6]; 0.038 µM in the assay on SCC-15 [7]; 0.0075 µM in the assay with SCC-25 [8]; 0.58 µM in the assay with SCC-15 [9]; 200 µM in the assay on L1210 ( R81).

`Nc1nc(N)c2nc(CNc3ccc(C(=O)NC(CCCNC(=O)CCC(=O)O)C(=O)O)cc3)cnc2n1` (stereo not given): in [1], the inhibition constant (Ki) was determined as 44 µM.

On to `Nc1nc(N)c2nc(CNc3ccc(C(=O)NC(CCCNC(=O)c4ccc(Cl)cc4)C(=O)O)cc3)cnc2n1` (stereo not given), for which the IC50 was found to be 0.0032 µM in the assay with L1210, 0.028 µM against Dihydrofolate reductase and 27 µM in the assay on L1210 ( R81).

Consider `Nc1nc(N)c2nc(CN(C=O)c3ccc(C(=O)NC(CCCNC(=O)c4ccc(Cl)cc4)C(=O)O)cc3)cnc2n1` (stereo not given), for which, in [1], the Ki is over 100 µM. Moreover, the IC50 with L1210 is 0.2 µM; against Dihydrofolate reductase it was 0.015 µM; in the assay on L1210 ( R81), over 200 µM.
